The text below walks through data of US5043354A, “Pharmaceutically useful 5-hydroxy-2,3-dihydro-benzofurans and 5-hydroxy-benzofurans” (Fujisawa Pharmaceutical Co., Ltd., priority 1989, dated 1991).

pIC50: −log10 of the molar value.

Series [1] deals with xanthine oxidase-hypoxanthine (XO/HX) reaction. Description: Inhibitory effect on luminol-induced chemiluminescence (CL) which results from xanthine oxidase-hypoxanthine (XO/HX) reaction. The class given is biochemical, cow. The following applies: 37° C, peak intensity, sample in dimethylsulfoxide. The procedure: Inhibitory effect on luminol-induced chemiluminescence (CL) which results from xanthine oxidase-hypoxanthine (XO/HX) reaction.
Four hundred and fifty micro liter of […] hypoxanthine (Kohjin Co., Ltd.) in 0.lM phosphate buffer solution (PBS)(pH 7.6), 10 μl of 1 mg/ml luminol (Nakarai Chemicals, Ltd.) in PBS and 10 μl of sample dissolved in dimethylsulfoxide were mixed in a round-bottomed vial, and preincubated for 3 min. at 37° C. And then, 50 μl of 0.05 unit/ml xanthine oxidase in 0.lM phosphate buffer solution (from cow milk, Boehringer Mannhein GmbH) was added. For the measurement of CL, a Biolumat (LB 9505, Berthold, FRG) was used. The vial containing XO/HX reaction mixture was placed into a Biolumat chamber at 37° C, and CL was continuously monitored using a computer (PC 9801 VM, NEC). Peak intensity was used as an index of CL.

Another series relates to rat brain homogenate. Description: Inhibitory effect on iron-dependent lipid peroxidation of rat brain homogenate (TBA-reactive products). The class given is biochemical, rat (male Sprague-Dawley). Conditions: 37° C, 20 min. The method, then:
Inhibitory effect on iron-dependent lipid peroxidation of rat brain homogenate
Method : (reported by J. M. Braughler et al.^1))
After decapitation,the brain was quickly removed (minus cerebellum), weighed, and placed in ice-cold Krebs buffer solution. The brain was homogenized in a ratio of 1 g of wet tissue to 9 ml of buffer in a teflon homogenizer. Homogenates were used immediately in lipid p-roxidation assays as follows.
* HEPES : N-(2-hydroxyethyl)piperazine-N'-2-ethanesulfonic acid (Sigma)
To the reaction mixture consisted of 50 μl of 6.25 mg/ml brain homogenate in Krebs buffer solution, 110 μl of Krebs buffer solution, 20 μl of sample dissolved in methanol was added 20 μl of aqueous 2 mM Fe(NH4)2 (SO4)2 solution, which was prepared freshly, at 37° C. After 20 min, the reaction was terminated by the addition of 30 μl of 35% perchloric acid. Then 20 μl of 500 μM desferoxamine mesylate (Sigma) in Krebs buffer solution was added to the reaction mixture to prevent further lipid peroxydation. After centrifugation at 2000 xg, 10 min, 4° C., 50 μl of supernatant was subsequently assayed for lipid peroxide.
Lipid peroxide was assessed as TBA-reactive product as described by H. Ohkawa et al ^2). The reaction mixture consisted of 50 μl of above-mentioned supernatant, 100 μl of aqueous 8.1% sodium dodecyl sulfate (SDS) solution, 750 μl of aqueous 20% acetic acid solution which was adjusted with aqueous lN NaOH solution to pH 3.5, 750 μl of aqueous 0.67% 2-thiobarbituric acid solution and 350 μl of distilled water was boiled for 1 hour and cooled in ice bath rapidly. 0.5 ml of distilled water and 2.5 ml of the mixture of n-butanol and pyridine (15:1, V/V) were added, and the mixture was shaken vigorously. After centrifugation at 1250 xg for 10 min, the fluorescence (excitation; 515 nm, emission; […]) of the organic layer was determined.

A short description of a further series: Solubility. The class given is physicochemical.

By pIC50 is commonly meant −log10 of the IC50, conventionally taken in molar units. Low readings indicate a large IC50, high ones a small IC50. For `COc1cc2oc(C(C)C)cc2cc1O` [Example 2, 5-hydroxy-6-methoxy-2-(1-methylethyl)benzofuran], in series [1], the pIC50 was 8.33.

Turning to `Cc1c(C)c2c(c(C)c1O)CCC(C)(CCCC(C)CCCC(C)CCCC(C)C)O2` (stereo not drawn) [α-Tocopherol, reference compound], the “Inhibition of TBA-reactive products generation” value in the series on rat brain homogenate (concentration 10^-4 M) stood at 65.3%; with rat brain homogenate (concentration 10^-5 M), 25.7%; in the series on rat brain homogenate (concentration 10^-6 M), 9.3%; with rat brain homogenate (concentration 10^-7 M), 0%.

As for `COc1cc2c(cc1O)CC(C(C)(C)O)O2` (stereo not shown) [Example 3, 2,3-Dihydro-2-(1-hydroxy-1-methylethyl)-6-methoxy-5-benzofuranol], the “Inhibition of TBA-reactive products generation” value was 95.5% with rat brain homogenate (concentration 10^-4 M), 45.4% in the series on rat brain homogenate (concentration 10^-5 M), 20.0% with rat brain homogenate (concentration 10^-6 M) and 11.4% in the series on rat brain homogenate (concentration 10^-7 M). In series [1], this molecule gave a pIC50 of 6.49. For the same molecule, the Solubility entry in the series “Solubility” (chloroform, diethyl ether, ethyl acetate, acetone, methanol and ethanol) is on record as “Soluble”; in the series “Solubility” (hexane, water), “Sparingly Soluble”.

For the molecule `COc1cc2c(cc1O)CC(C(C)(C)O)O2` (racemic) [Example 1, 2,3-dihydro-2-(1-hydroxy-1-methylethyl)-6-methoxy-5-benzofuranol], in series [1], the pIC50 was 6.42.
